According to PubChem BioAssay AID298 (DTP/NCI, 2004):
“And” between values parts separate entries of the source, which are not always exact repeats. Equal values may be shown once. Inconclusive results are not listed.

Test system: MX-1 breast xenograft, intrarenal, nude mice, tumor weight
Assay: NCI In Vivo Anticancer Drug Screen. Data for tumor model Human Mammary Carcinoma MX-1 Xenograft (intrarenal inoculation) in NU/NU BALB/C (nude) mice
Conditions: endpoint: mean tumor weight change, higher = larger tumour
Method: The antitumor activity of compounds was measured in mice bearing transplantable tumors. Survival or tumor size were measured and the results are expressed as the measurement made in the treated group (T) divided by the measurement made in the vehicle treated control group (C). The tumor model used in this assay is Human Mammary Carcinoma MX-1 Xenograft (intrarenal inoculation) in NU/NU BALB/C (nude) mice

[1] = dose: 100.0 mg/kg/injection, schedule: Q04DX003 (ip), vehicle: saline with Tween-80
[2] = dose: 200.0 mg/kg/injection, schedule: Q04DX003 (ip), vehicle: saline with Tween-80
[3] = dose: 150.0 mg/kg/injection, schedule: Q04DX003 (ip), vehicle: Klucel (hydroxypropylcellulose) (HPC)
[4] = dose: 150.0 mg/kg/injection, schedule: Q04DX003 (ip), vehicle: saline with Tween-80
[5] = dose: 300.0 mg/kg/injection, schedule: Q04DX003 (sc), vehicle: saline with Tween-80
[6] = dose: 600.0 mg/kg/injection, schedule: Q04DX003 (sc), vehicle: saline with Tween-80

For `c1ccc(P(CCNCCP(c2ccccc2)c2ccccc2)c2ccccc2)cc1`, the T/C [1] was 111 % of control, the T/C [2] was 106 % of control and the T/C (dose: 800.0 mg/kg/injection, schedule: Q04DX003 (ip), vehicle: saline with Tween-80) was 81 % of control.
`O=C(O)[C@H](Cc1ccccc1)N1C(=O)c2ccccc2C1=O` was tested, and the T/C (dose: 150.0 mg/kg/injection, schedule: Q04DX003 (ip), vehicle: DMSO) was 77 % of control, the T/C (dose: 300.0 mg/kg/injection, schedule: Q04DX003 (ip), vehicle: DMSO) was 60 % of control and the T/C (dose: 600.0 mg/kg/injection, schedule: Q04DX003 (ip), vehicle: DMSO) was 33 % of control.
With `CN=S(=O)(OCCCCCOS(=O)(=NC)c1ccc(C)cc1)c1ccc(C)cc1` (centres undefined) the T/C (dose: 75.0 mg/kg/injection, schedule: Q04DX003 (sc), vehicle: saline with Tween-80) was 86 % of control and the T/C (dose: 150.0 mg/kg/injection, schedule: Q04DX003 (sc), vehicle: saline with Tween-80) was 61 % of control.
For `CCOC1NC(=O)Oc2ccccc21` (centres undefined), the T/C [3] was 80 % of control, the T/C (dose: 300.0 mg/kg/injection, schedule: Q04DX003 (ip), vehicle: Klucel (hydroxypropylcellulose) (HPC)) was 74 % of control and the T/C (dose: 600.0 mg/kg/injection, schedule: Q04DX003 (ip), vehicle: Klucel (hydroxypropylcellulose) (HPC)) was 86 % of control. The T/C (dose: 1200.0 mg/kg/injection, schedule: Q04DX003 (ip), vehicle: Klucel (hydroxypropylcellulose) (HPC)) was 79 % of control.
With `O=S(=O)(c1cccc(N=C=S)c1)c1cccc(N=C=S)c1` the T/C (dose: 50.0 mg/kg/injection, schedule: Q04DX003 (ip), vehicle: Klucel (hydroxypropylcellulose) (HPC)) was 121 % of control, the T/C (dose: 100.0 mg/kg/injection, schedule: Q04DX003 (ip), vehicle: Klucel (hydroxypropylcellulose) (HPC)) was 83 % of control and the T/C (dose: 200.0 mg/kg/injection, schedule: Q04DX003 (ip), vehicle: Klucel (hydroxypropylcellulose) (HPC)) was 82 % of control.
With `O=C1c2ccccc2C(Cl)(c2ccc(Cl)cc2)c2ccc(Cl)cc21` (centres undefined) the T/C [4] was 53 % of control, the T/C (dose: 300.0 mg/kg/injection, schedule: Q04DX003 (ip), vehicle: saline with Tween-80) was 60 % of control and the T/C (dose: 600.0 mg/kg/injection, schedule: Q04DX003 (ip), vehicle: saline with Tween-80) was 48 % of control. For the same compound, the T/C (dose: 1200.0 mg/kg/injection, schedule: Q04DX003 (ip), vehicle: saline with Tween-80) was 30 % of control.
`COc1ccc(Cl)[n+]([O-])n1` was tested, and the T/C (dose: 25.0 mg/kg/injection, schedule: Q04DX003 (sc), vehicle: Klucel (hydroxypropylcellulose) (HPC)) was 119 % of control, the T/C (dose: 50.0 mg/kg/injection, schedule: Q04DX003 (sc), vehicle: Klucel (hydroxypropylcellulose) (HPC)) was 111 % of control and the T/C (dose: 100.0 mg/kg/injection, schedule: Q04DX003 (sc), vehicle: Klucel (hydroxypropylcellulose) (HPC)) was 106 % of control.
For `CCCCCCCC(=O)OCC(=O)[C@]1(O)Cc2c(O)c3c(c(O)c2[C@@H](OC2CC(N)C(O)C(C)O2)C1)C(=O)c1c(OC)cccc1C3=O` (some centres undefined), the T/C (dose: 2.0 mg/kg/injection, schedule: Q01DX010 (ip), vehicle: suspension in saline) was 4 % of control, the T/C (dose: 2.0 mg/kg/injection, schedule: Q01DX010 (sc), vehicle: saline) was 121 % of control and the T/C (dose: 2.0 mg/kg/injection, schedule: Q04DX003 (ip), vehicle: saline) was 53 % of control. For the same compound, the T/C (dose: 4.0 mg/kg/injection, schedule: Q01DX010 (ip), vehicle: suspension in saline) was 5 % of control, the T/C (dose: 4.0 mg/kg/injection, schedule: Q01DX010 (sc), vehicle: saline) was 20 % of control and the T/C (dose: 4.0 mg/kg/injection, schedule: Q04DX003 (ip), vehicle: saline) was 27 % of control. The T/C (dose: 8.0 mg/kg/injection, schedule: Q01DX010 (sc), vehicle: saline) was 2 % of control and the T/C (dose: 8.0 mg/kg/injection, schedule: Q04DX003 (ip), vehicle: saline) was 5 % of control.
For `O=C1N[C@@H]([C@H]2CC[C@H](Cl)CN2)C(=O)N[C@H]1[C@H]1CC[C@H](Cl)CN1`, the T/C (dose: 0.31 mg/kg/injection, schedule: Q01DX010 (sc), vehicle: water) was 62 % of control, the T/C (dose: 0.63 mg/kg/injection, schedule: Q01DX010 (sc), vehicle: water) was 14 % of control and the T/C (dose: 1.25 mg/kg/injection, schedule: Q01DX010 (sc), vehicle: water) was 1 % of control. The T/C (dose: 2.5 mg/kg/injection, schedule: Q01DX010 (sc), vehicle: water) was -54 % of control and the T/C (dose: 5.0 mg/kg/injection, schedule: Q01DX010 (sc), vehicle: water) was -87 % of control.
With `C[C@]12CC[C@@H]3c4ccc(OC(=O)Cc5ccc(N(CCCl)CCCl)cc5)cc4CC[C@H]3[C@@H]1CC[C@@H]2OC(=O)Cc1ccc(N(CCCl)CCCl)cc1` the T/C [5] was 98 % of control, the T/C [6] was 24 % of control and the T/C (dose: 1200.0 mg/kg/injection, schedule: Q04DX003 (sc), vehicle: saline with Tween-80) was 7 % of control.
For `O=S(=O)(O)C1=CC(=N\Cl)/C=CC/1=N/Cl`, the T/C [4] was 89 % of control.
With `CO[C@@]12[C@H](COC(N)=O)C3=C(C(=O)C(C)=C(N)C3=O)N1C[C@@H]1N[C@@H]12` the T/C (dose: 1.5 mg/kg/injection, schedule: Q04DX003 (sc), vehicle: saline) was 9 % of control and 14 % of control, the T/C (dose: 6.0 mg/kg/injection, schedule: Q04DX003 (ip), vehicle: suspension in saline) was -100 % of control and the T/C (dose: 8.0 mg/kg/injection, schedule: Q04DX003 (ip), vehicle: suspension in saline) was -100 % of control.
`O=C1C=C(N2CC2)C(=O)C(N2CC2)=C1N1CC1` was tested, and the T/C (dose: 25.0 micrograms/kg/injection, schedule: Q04DX003 (ip), vehicle: saline) was 4 % of control and the T/C (dose: 400.0 micrograms/kg/injection, schedule: Q04DX003 (ip), vehicle: saline) was -100 % of control.
In the case of `COC(=Nc1ccccc1)SSC(C)C`, the T/C [5] is reported as 90 % of control and the T/C [6] is reported as 99 % of control.
`CN=C(NC#N)NCCSCc1nc[nH]c1C` was tested, and the T/C (dose: 600.0 mg/kg/injection, schedule: Q04DX003 (sc), vehicle: Klucel (hydroxypropylcellulose) (HPC)) was 108 % of control.
With `CCCCCCCCCCC(OC(C)=O)C1CCC(C2CCC(C(O)CCCCCCCCCCCCC3C=C(C)OC3=O)O2)O1` (centres undefined) the T/C (dose: 20.0 mg/kg/injection, schedule: Q04DX003 (sc), vehicle: water) was 80 % of control, the T/C (dose: 40.0 mg/kg/injection, schedule: Q04DX003 (sc), vehicle: water) was 72 % of control and the T/C (dose: 80.0 mg/kg/injection, schedule: Q04DX003 (sc), vehicle: water) was 71 % of control. For the same compound, the T/C (dose: 160.0 mg/kg/injection, schedule: Q04DX003 (sc), vehicle: water) was 70 % of control.
`CC(=O)Nc1ccc(Nc2ccc(C(=C3C=CC(=[N+](C)CCC#N)C=C3)c3ccc(N(C)CCC#N)cc3)cc2)cc1` was tested, and the T/C (dose: 12.5 mg/kg/injection, schedule: Q04DX003 (ip), vehicle: saline) was 45 % of control, the T/C (dose: 25.0 mg/kg/injection, schedule: Q04DX003 (ip), vehicle: saline) was 80 % of control and the T/C (dose: 50.0 mg/kg/injection, schedule: Q04DX003 (ip), vehicle: saline) was 63 % of control. The T/C (dose: 100.0 mg/kg/injection, schedule: Q04DX003 (ip), vehicle: saline) was 97 % of control, the T/C (dose: 100.0 mg/kg/injection, schedule: Q04DX003 (ip), vehicle: suspension in saline) was 84 % of control and the T/C (dose: 200.0 mg/kg/injection, schedule: Q04DX003 (ip), vehicle: suspension in saline) was 45 % of control.
With `CNC(=O)N(C)N=NCCCl` the T/C [1] was 15 % of control, the T/C (dose: 140.0 mg/kg/injection, schedule: Q04DX003 (ip), vehicle: saline with Tween-80) was 10 % of control and the T/C [2] was 1 % of control. For the same compound, the T/C (dose: 240.0 mg/kg/injection, schedule: Q04DX003 (ip), vehicle: saline with Tween-80) was 8 % of control and the T/C (dose: 400.0 mg/kg/injection, schedule: Q04DX003 (ip), vehicle: saline with Tween-80) was -76 % of control.
`Cn1c(-c2ccc(/C=N\N3CCN(/N=C/c4ccc(-c5c[n+]6ccsc6n5C)cc4)CC3)cc2)c[n+]2ccsc12` was tested, and the T/C (dose: 3.0 mg/kg/injection, schedule: Q04DX003 (ip), vehicle: saline with Tween-80) was 79 % of control.
With `COc1cc2c(cc1OC)[C@@H]1C(=O)c3ccc4c(c3O[C@@H]1CO2)C[C@H](C(C)C)O4` the T/C (dose: 37.5 mg/kg/injection, schedule: Q04DX003 (ip), vehicle: Klucel (hydroxypropylcellulose) (HPC)) was 78 % of control, the T/C (dose: 75.0 mg/kg/injection, schedule: Q04DX003 (ip), vehicle: Klucel (hydroxypropylcellulose) (HPC)) was 55 % of control and the T/C [3] was 57 % of control.
In the case of `O=C1c2c(O)cccc2-c2nn(CCNCCO)c3ccc(NCCNCCO)c1c23`, the T/C (dose: 2.75 mg/kg/injection, schedule: Q04DX003 (ip), vehicle: water) is reported as 3 % of control, the T/C (dose: 5.5 mg/kg/injection, schedule: Q04DX003 (ip), vehicle: water) is reported as -100 % of control and the T/C (dose: 11.0 mg/kg/injection, schedule: Q04DX003 (ip), vehicle: water) is reported as -19 % of control.
